Data set [1] has as its system PC-12 cells. The experiment in a line: Cytoprotection against menadione-induced damage (MTS assay). The conditions noted are these: for protective effect: pretreatment 24 h, 5 mM, menadione 25 μM. How it is done:
(§1) PC-12 cells were subjected to oxidative damage by CoCl2, L-glutamic acid, or menadione and treated with the oligopeptides as follows. Briefly, the pre-grown cells were seeded in a 96-well plate at a density of 60 000 cells per well and cultured overnight in FBS-containing α-MEM. Next day, the medium was replaced by a fresh one without FBS, and further manipulations were performed in FBS-free medium.
(§2) Eventually, viability of the treated cells was evaluated with the use of MTS assay (Promega) on an Infinite M200 PRO microplate analyzer (TECAN). The cell viability was presented as a percentage of that of the control cells cultured in the absence of compounds (100% viability).

A short description of data set [2]: Dynamic light scattering. Type of data set: physicochemical. The conditions noted are these: data not shown.
In data set [3] the test system is human skin fibroblasts (HSF). In words: MTT proliferation (cytotoxicity) assay. Type of data set: cell-based. How it is done:
(§3) PC-12 rat pheochromocytoma cell line (ATTC) and human skin fibroblasts (HSF) were used. HSF were isolated as detailed in ([Tsepaeva et al., 2017]). The cells were cultured aseptically in α-MEM containing 10% fetal bovine serum (FBS), 2 mM L-glutamine, 100 U/mL penicillin and 100 μg/mL streptomycin at 37°C in humidified air atmosphere with 5% CO2.
(§4) The cytotoxicity of the oligopeptides was evaluated in the concentration range from 1 μM to 3.2 mM by means of the MTT proliferation assay in 96-well microplates as described in [Tsepaeva et al. (2017)]. The cell viability was presented as a percentage of control cells grown without compounds (100% viability value). Half-maximal inhibitory concentrations (IC50) were calculated from cell viability curves using OriginPro 8.0 software.

For data set [4], the target named is T1, trypsin (Sus scrofa, UniProt P00761).
T1 construct: purchased PanEco company (Russia); host or cells: porcine pancreas
T1 sequence (P00761 9-231): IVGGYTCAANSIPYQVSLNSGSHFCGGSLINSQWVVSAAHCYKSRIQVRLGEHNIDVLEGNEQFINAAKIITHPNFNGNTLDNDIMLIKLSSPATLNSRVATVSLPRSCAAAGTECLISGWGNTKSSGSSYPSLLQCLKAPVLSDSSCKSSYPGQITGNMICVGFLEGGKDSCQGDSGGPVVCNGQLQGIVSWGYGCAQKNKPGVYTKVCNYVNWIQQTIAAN
In words: Tryptic cleavage of oligopeptides followed by reversed-phase HPLC. Type of data set: in vitro ADME, porcine. Conditions: trypsin 5 μg/mL, PBS pH 7.4; for half-life at 0.5 mg/mL: pig, oligopeptide 0.5 mg/mL, read-out: 50% degradation rate (DR50). Here is the method: The reaction mixture containing an oligopeptide (0.5 mg/mL) and trypsin (5 μg/mL) in phosphate buffered saline (PBS, pH 7.4) was incubated for different time intervals, and aliquots of digestion products were collected for reversed-phase high-performance liquid chromatography (HPLC). HPLC analysis was carried out on a Dionex UltiMate 3000 system (Thermo Scientific) using a Kromasil C18 column, 5 μm, 4.6 mm × 150 mm (AkzoNobel). Mobile phase contained (A) acetonitrile with 0.1% trifluoroacetic acid, (B) milli-Q water with 0.1% trifluoroacetic acid. Gradient scheme was as follows, 0–10 min: from 100% A to 100% B, 10–20 min: 100% A to 100% B, 20–25 min: 100% B. Flow rate was 0.5 mL/min; injection volume was 10 μL. The detection was performed at wavelengths of 220 and 260 nm. Chromatographic data were collected and treated with the aid of Chromeleon 6.80 software (Thermo Scientific). Peak height of the uncleaved oligopeptides was measured to calculate remaining concentration of the oligopeptides after tryptic cleavage. Concentration values were presented as mean ± SD (n = 3).
Enzymatic cleavage of the oligopeptides was performed in PBS solution using pancreatic trypsin as a pharmacologically relevant endopeptidase ([Vlieghe et al., 2010]; [Danial et al., 2012]). To compare proteolytic resistance of the initial and TPP-modified oligopeptides, the reaction conditions were optimized to provide a relatively slow kinetics. The concentration of uncleaved oligopeptides was detected by means of HPLC. In the absence of trypsin, both the unmodified tetrapeptides and TPP derivatives were stable during at least 48 h incubation at ambient temperature.

For data set [5], the system named is PC-12 cells. The experiment in a line: Cytoprotection against L-glutamic acid-induced damage (MTS assay). Conditions: 50 mM LGlu. How it is done:
(§5) PC-12 cells were subjected to oxidative damage by CoCl2, L-glutamic acid, or menadione and treated with the oligopeptides as follows. Briefly, the pre-grown cells were seeded in a 96-well plate at a density of 60 000 cells per well and cultured overnight in FBS-containing α-MEM. Next day, the medium was replaced by a fresh one without FBS, and further manipulations were performed in FBS-free medium. The oxidative agents and oligopeptides were supplemented to the medium in three ways: (i) the cells were pre-cultured in the presence of oligopeptides for 24 h, then the medium was replaced by a fresh one supplemented with a damaging factor and the cells were further cultured with the factor for 24 h (CoCl2, L-glutamic acid) or 3 h (menadione) (‘pretreatment’); (ii) the damaging factor and oligopeptide were added together to cells and cultured for 24 h (CoCl2, L-glutamic acid) or 3 h (menadione) followed by medium replacement (‘cotreatment’); (iii) following treatment with menadione, the cells were additionally cultured with the oligopeptides for 24 h (‘posttreatment’). The concentration of compounds was as follows: oligopeptides 5 mM, CoCl2 2.5 mM, L-glutamic acid 50 mM, menadione 25 μM.
as §2

Assay in data set [6]: as above
The conditions noted are these: rat. Here is the method:
as §5, §2

A short description of data set [7]: Cytoprotection against menadione-induced damage (MTS assay). The conditions noted are these: rat, PC-12 cells. Here is the method:
as §1, §2

The subject of data set [8] is PC-12 cells. In words: MTT proliferation (cytotoxicity) assay. The conditions noted are these: over the whole concentration range (1 μM to 3.2 mM). Type of data set: cell-based, rat. Here is the method: as §3, §4
A short description of data set [9]: Fenton-like CoCl2/H2O2 reaction, ROS detected with DCFDA probe. Here is the method:
Fenton-like reaction was initiated by mixing 0.2 mM cobalt chloride (CoCl2) and 22 mM hydrogen peroxide (H2O2) in PBS and carried out for 60 min in the presence of or without a serially diluted oligopeptide. ROS generated in the Fenton reaction were detected by using DCFDA fluorescent probe (5 μM) at λex = 488 nm and λem = 535 nm. The effect of oligopeptides was measured as a percentage of ROS generation rate in the control reaction without effectors (100%) ([Akhmadishina et al., 2017]).

For data set [10], the system named is PC-12 cells. Here is the method:
as §5, §2

Data set [11] has as its system PC-12 cells. The experiment in a line: H2O2-induced oxidative stress in cells (DCFDA fluorescence). Format: cell-based, rat. Conditions: 5 mM, 1 h, 100 mM H2O2, HBSS. Here is the method: PC-12 cells were seeded in a 96-well plate and allowed to form a subconfluent monolayer. The cells were washed with Hank’s balanced salt solution (HBSS), pre-stained with 20 μM DCFDA and rewashed with HBSS two times. The oxidative stress in the stained cells was induced by incubating them in HBSS solution containing 100 mM H2O2 for 1 h in CO2-incubator. The synthesized oligopeptides or glutathione were added to the extracellular solution in the concentration range from 1 to 10 mM in HBSS and incubated for 1 h. The bottom fluorescent signal was acquired from the treated cells on an Infinite M200PRO microplate analyzer (TECAN) at λex = 488 nm and λem = 535 nm.

Data set [12] has as its system prostate cancer (PC-3) cells. Conditions: same supplementation; ref Akhmadishina et al., 2017; cited from earlier work.
For data set [13] the following is noted: same reaction; ref Akhmadishina et al., 2017; cited from earlier work.

Structures are written as SMILES. Read-outs that look alike come from different tables or passages of the source. Bounds are passed on as bounds.

For `N=C(N)NCCC[C@@H](NC(=O)[C@H](Cc1ccc(O)cc1)NC(=O)CCCCC[P+](c1ccccc1)(c1ccccc1)c1ccccc1)C(=O)N[C@@H](Cc1ccccc1)C(=O)N[C@@H](CCCCN)C(N)=O` [TPP-6-YrFK-NH2], the protective effect entry in data set [1] is reported as “effectively prevented cell damage”; in data set [5] (pretreatment, supplemented 24 h prior to damage), “completely prevented cell damage”. Further, the aggregative properties result in [2] is listed as “formed well-defined submicron aggregates”. For the same compound, the “half-maximal inhibition of proliferation” value in data set [3] (MTT, 3 days) is recorded as “millimolar concentrations”. The “reaction time without any degradation” value in data set [4] is “at least 17 h”.
Take `N=C(N)NCCC[C@H](NC(=O)[C@@H](N)Cc1ccc(O)cc1)C(=O)N[C@@H](Cc1ccccc1)C(=O)N[C@@H](CCCCN)C(N)=O` [YRFK-NH2]: the half-life at 0.5 mg/mL in data set [4] (isolated enzyme trypsin) was about 6.17 h.
In the case of `N=C(N)NCCC[C@H](NC(=O)[C@H](Cc1ccc(O)cc1)NC(=O)CC[P+](c1ccccc1)(c1ccccc1)c1ccccc1)C(=O)N[C@@H](Cc1ccccc1)C(=O)N[C@@H](CCCCN)C(N)=O` [TPP-3-YRFK-NH2], the half-life at 0.5 mg/mL in [4] (pancreatic trypsin in PBS) is about 0.767 h. Moreover, in [4], the “extent of cleavage before plateau” value was about 80%.
Turning to `N[C@@H](CCC(=O)O)C(=O)O` [^LGlu, L-glutamic acid], the viability at 24 h, 50 mM in data set [6] is 37.1%.
`CC1=CC(=O)c2ccccc2C1=O` [Men, menadione] had a viability at 3 h, 25 μM in [7] of about 17%.
Consider `N=C(N)NCCC[C@H](NC(=O)[C@H](Cc1ccc(O)cc1)NC(=O)CCCCC[P+](c1ccccc1)(c1ccccc1)c1ccccc1)C(=O)N[C@@H](Cc1ccccc1)C(=O)N[C@@H](CCCCN)C(N)=O` [TPP-6-YRFK-NH2], for which, in data set [8], the increase of proliferation entry is “up to 20%”. Also, the “concentrations at which the inhibitory effect toward the reaction was observed” value in data set [9] (0.2 mM CoCl2, 22 mM H2O2, PBS) is over 250 µM. Also, in data set [9] (ROS generation in CoCl2/H2O2 reaction, read-out: half-maximal inhibitory concentration (EC50)), the EC50 was 500 ± 25 µM. Besides, the aggregative properties result in data set [2] is “formed well-defined submicron aggregates”. The “concentration at which cell proliferation was decreased” value in [3] (effect disappeared in lower and higher concentration ranges) is listed as “around 100 μM”. For the same compound, in [4] (pancreatic trypsin in PBS), the half-life at 0.5 mg/mL is about 1.17 h. Also, in [4], the “time during which cleavage was initially retarded” value was “approximately 60 min”. The cell viability in data set [10] (rat) was about 126%.
As to `N[C@@H](CCC(=O)N[C@@H](CS)C(=O)NCC(=O)O)C(=O)O` [GSH, γ-Glu-Cys-Gly], the “effect on DCFDA signal” value in data set [11] is “almost completely decreased the signal”. Also, in data set [1] (Rattus norvegicus, PC-12, 24 h, read-out: cell viability), the viability at 5000 µM was found to be 32%. Besides, the protective effect result in data set [1] is “not when applied prior to the treatment”; in data set [5] (5 mM) it was “relatively low protective effect”; in [10] (pretreatment 24 h, 5 mM, CoCl2 2.5 mM) it was “did not exhibit a protective effect”. Also, in data set [12], the effect on proliferation entry was “greatly stimulated proliferation”. For the same compound, the EC50 in [13] was 544 ± 39 µM. The “effect on cell damage” value in [10] (cotreatment, 5 mM, CoCl2 2.5 mM) is reported as “insignificantly diminished cell damage”.
As to `NCCCC[C@H](NC(=O)[C@H](Cc1ccccc1)NC(=O)[C@@H](CCCN=C(N)N)NC(=O)[C@@H](N)Cc1ccc(O)cc1)C(N)=O` [YrFK-NH2], in data set [4] (isolated enzyme trypsin), the half-life at 0.5 mg/mL is about 14.6 h.
Take `[Cl-].[Cl-].[Co+2]` [CoCl2, cobalt (II) chloride]: in [10] (CoCl2 2.5 mM, 24 h), the “cell viability, damaging factor alone” value amounted to 55%.

The values are drawn from PMC5827532, “Triphenylphosphonium Moiety Modulates Proteolytic Stability and Potentiates Neuroprotective Activity of Antioxidant Tetrapeptides in Vitro” (Frontiers in Pharmacology, 2018).
